Measurements taken from ChEMBL document CHEMBL1201862, “PubChem BioAssay data set” (2004).
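Tested at 5 concentrations; 48 h exposure; 96-well plates; endpoints linearly interpolated, else capped at highest concentration. GI50 = concentration required for 50% inhibition of growth.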 Calls of active or inactive are those of the source. Cut-off read from the data, not from the text of the source: active = GI50 up to about 1.1 µM and inactive = higher.

Legend:
Test in all cases: NCI-60 cell line screen, 48 h
786-0 = test system: 786-0
A498 = test system: A498
A549 = test system: A549
ACHN = test system: ACHN
CAKI-1 = test system: CAKI-1
COLO 205 = test system: COLO 205
DLD-1 = test system: DLD-1
DMS-114 = test system: DMS-114
DMS-273 = test system: DMS-273
EKVX = test system: EKVX
HCC 2998 = test system: HCC 2998
HCT-116 = test system: HCT-116
HCT-15 = test system: HCT-15
HL-60 = test system: HL-60
HOP-18 = test system: HOP-18
HOP-62 = test system: HOP-62
HOP-92 = test system: HOP-92
HT-29 = test system: HT-29
Hs-578T = test system: Hs-578T
IGROV-1 = test system: IGROV-1
K562 = test system: K562
KM-20L2 = test system: KM-20L2
KM12 = test system: KM12
LOX IMVI = test system: LOX IMVI
LXFL 529 = test system: LXFL 529
M14 = test system: M14
M19-MEL = test system: M19-MEL
MCF7 = test system: MCF7
MDA-MB-231 = test system: MDA-MB-231
MDA-MB-435 = test system: MDA-MB-435
MDA-N = test system: MDA-N
MOLT-4 = test system: MOLT-4
Malme-3M = test system: Malme-3M
NCI-H226 = test system: NCI-H226
NCI-H23 = test system: NCI-H23
NCI-H460 = test system: NCI-H460
NCI-H522 = test system: NCI-H522
NCI/ADR-RES = test system: NCI/ADR-RES
OVCAR-3 = test system: OVCAR-3
OVCAR-4 = test system: OVCAR-4
OVCAR-5 = test system: OVCAR-5
OVCAR-8 = test system: OVCAR-8
PC-3 = test system: PC-3
RPMI-8226 = test system: RPMI-8226
RXF 393 = test system: RXF 393
SF-268 = test system: SF-268
SF-295 = test system: SF-295
SF-539 = test system: SF-539
SK-MEL-28 = test system: SK-MEL-28
SK-MEL-2 = test system: SK-MEL-2
SK-MEL-5 = test system: SK-MEL-5
SK-OV-3 = test system: SK-OV-3
SN12C = test system: SN12C
SNB-19 = test system: SNB-19
SNB-75 = test system: SNB-75
SNB-78 = test system: SNB-78
SR = test system: SR
SW-620 = test system: SW-620
T47D = test system: T47D
TK-10 = test system: TK-10
U-251 = test system: U-251
UACC-257 = test system: UACC-257
UACC-62 = test system: UACC-62
UO-31 = test system: UO-31
XF498 = test system: XF498

CN(C)CC1CCC(CN(C)C)C1=O (stereo not given)
GI50 (786-0): 1.93 µM (inactive) | GI50 (A498): 25.4 µM (inactive) | GI50 (A549): 18.7 µM (inactive) | GI50 (ACHN): 4.7 µM (inactive) | GI50 (CAKI-1): 0.736 µM (active) | GI50 (COLO 205): 0.608 µM (active) | GI50 (DLD-1): 2.05 µM (inactive) | GI50 (DMS-114): 5.92 µM (inactive) | GI50 (DMS-273): 17.1 µM (inactive) | GI50 (EKVX): 4.53 µM (inactive) | GI50 (HCC 2998): 18 µM (inactive) | GI50 (HCT-116): 2.27 µM (inactive) | GI50 (HCT-15): 1.43 µM | GI50 (HL-60): 0.294 µM (active) | GI50 (HOP-18): 18.8 µM (inactive) | GI50 (HOP-62): > 52.5 µM (inactive) | GI50 (HOP-92): 2.24 µM (inactive) | GI50 (HT-29): 6.64 µM (inactive) | GI50 (Hs-578T): 3.06 µM (inactive) | GI50 (IGROV-1): 7.94 µM (inactive) | GI50 (K562): 0.418 µM (active) | GI50 (KM-20L2): 17.4 µM (inactive) | GI50 (KM12): 10.3 µM (inactive) | GI50 (LOX IMVI): 4.54 µM (inactive) | GI50 (LXFL 529): 1.47 µM (inactive) | GI50 (M14): 2.91 µM (inactive) | GI50 (M19-MEL): 3.43 µM (inactive) | GI50 (MCF7): 0.458 µM (active) | GI50 (MDA-MB-231): 2.07 µM (inactive) | GI50 (MDA-MB-435): 20 µM (inactive) | GI50 (MDA-N): 2.01 µM (inactive) | GI50 (MOLT-4): 0.594 µM (active) | GI50 (Malme-3M): 1.73 µM (inactive) | GI50 (NCI-H226): 19.7 µM (inactive) | GI50 (NCI-H23): 4.05 µM (inactive) | GI50 (NCI-H460): 20.8 µM (inactive) | GI50 (NCI-H522): 0.114 µM (active) | GI50 (NCI/ADR-RES): 23 µM (inactive) | GI50 (OVCAR-3): 3.81 µM (inactive) | GI50 (OVCAR-4): 5.32 µM (inactive) | GI50 (OVCAR-5): 9.73 µM (inactive) | GI50 (OVCAR-8): 3.31 µM (inactive) | GI50 (PC-3): 1.98 µM (inactive) | GI50 (RPMI-8226): 0.541 µM (active) | GI50 (RXF 393): 4.19 µM (inactive) | GI50 (SF-268): 19.5 µM (inactive) | GI50 (SF-295): 18.3 µM (inactive) | GI50 (SF-539): 18.4 µM (inactive) | GI50 (SK-MEL-28): 8.65 µM (inactive) | GI50 (SK-MEL-2): 14.1 µM (inactive) | GI50 (SK-MEL-5): 8.26 µM (inactive) | GI50 (SK-OV-3): 16.8 µM (inactive) | GI50 (SN12C): 6.89 µM (inactive) | GI50 (SNB-19): > 100 µM (inactive) | GI50 (SNB-75): 20.7 µM (inactive) | GI50 (SNB-78): 5.83 µM (inactive) | GI50 (SR): 2.6 µM (inactive) | GI50 (SW-620): 0.873 µM (active) | GI50 (T47D): 1.39 µM (inactive) | GI50 (TK-10): 14.7 µM (inactive) | GI50 (U-251): 24.3 µM (inactive) | GI50 (UACC-257): 8.34 µM (inactive) | GI50 (UACC-62): 13.9 µM (inactive) | GI50 (UO-31): 7.67 µM (inactive) | GI50 (XF498): 5.69 µM (inactive)
